Measurements: patent US20030013660A1, “Dioxolane analogs for improved inter-cellular delivery” (Shire BioChem Inc., priority 2000, published 2003)

Legend:
Assay in all cases: 3H-TdR incorporation at 72 hr (24 hr drug exposure, wash, 48 hr)
H-460 = type: cell-based, Human; details: Homo sapiens, NCI-H460, read-out: IC50 in μM (3H-TdR incorporation at 72 hr) H-460 24 h, H-460 Human Lung Carcinoma, 72 hr assay
Method: (§1) Exposition of 24 hr to drug, wash, incubated for another 48 hr (total of 72 hr assay)
(§2) (3H-Thymidine Incorporation Assay)

MCF-7 = type: cell-based, Human; details: Homo sapiens, MCF7, read-out: IC50 in μM (3H-TdR incorporation at 72 hr) MCF-7 24 h, MCF-7 Human Breast Carcinoma, 72 hr assay
Method: as §1, §2

SF-268 = type: cell-based, Human; details: Homo sapiens, SF-268, read-out: IC50 in μM (3H-TdR incorporation at 72 hr) SF-268 24 h, SF-268 Human Central Nervous System Tumor; 24 h drug exposure, 72 hr assay
Method: as §1, §2

CCRF-CEM = type: cell-based; details: Homo sapiens, CCRF-CEM, read-out: IC50 in μM (3H-TdR incorporation at 72 hr) CCRF-CEM 24 h, CCRF-CEM T-cell Leukemia, 72 hr assay
Method: as §1, §2

CEM/dCK- = type: cell-based; details: for IC50: Homo sapiens, CCRF-CEM, read-out: IC50 in μM (3H-TdR incorporation at 72 hr) CEM/dCK- 24 h, CCRF-CEM deoxycytidine kinase-deficient, 24 h drug exposure, 72 hr assay; for Factor* (Resistance Factor = Ratio of dCK- on Wild-type CCRF-CEM): ratio of IC50 CEM/dCK- to IC50 CCRF-CEM
Method: as §1, §2

SMILES | IC50 (H-460) | IC50 (MCF-7) | IC50 (SF-268) | IC50 (CCRF-CEM) | IC50 (CEM/dCK-) | Factor* (Resistance Factor = Ratio of dCK- on Wild-type CCRF-CEM) (CEM/dCK-)
Nc1ccn([C@@H]2CO[C@H](COC(=O)c3ccccc3Cc3ccccc3)O2)c(=O)n1 [Compound 220, BIPHENYL-2-CARBOXYLIC ACID 4-(4-AMINO-2-OXO- 2H-PYRIMIDIN-1-YL)- [1,3]DIOXOLAN-2-YL METHYL ESTER] | 0.0034 µM | 0.029 µM | 0.042 µM | 0.0035 µM | > 100 µM | >28571
O=C(Nc1ccn([C@@H]2CO[C@H](CO)O2)c(=O)n1)C1(c2ccccc2)CCCCC1 [Compound 225, 1-PHENYL- CYCLOHEXANECARBOXYLIC ACID [1-(2- HYDROXYMETHYL- [1,3]DIOXOLAN-4-YL)-2- OXO-1,2-DIHYDRO- PYRIMIDIN-4-YL]-AMIDE] | 11 µM | 11 µM | 43 µM | 0.88 µM | > 100 µM | >113
CC(C)(CCCCCCc1ccccc1)C(=O)Nc1ccn([C@@H]2CO[C@H](CO)O2)c(=O)n1 [Compound 227, 2,2-DIMETHYL-8-PHENYL- OCTANOIC ACID [1-(2- HYDROXYMETHYL- [1,3]DIOXOLAN-4-YL)-2- OXO-1,2-DIHYDRO- PYRIMIDIN-4-YL]-AMIDE] | 0.84 µM | 0.012 µM | 3 µM | 0.043 µM | 22 µM | 512
C/C(=N\c1ccn([C@@H]2CO[C@H](CO)O2)c(=O)n1)N(C)C [Compound 228, N′-[1-(2-HYDROXYMETHYL- [1,3]DIOXOLAN-4-YL)-2- OXO-1,2-DIHYDRO- PYRIMIDIN-4-YL]-N,N- DIMETHYL-ACETAMIDINE] | 0.68 µM | 1.5 µM | 5.3 µM | 0.44 µM | > 100 µM | >227
C[C@H]1CC[C@@](C)(C(=O)Nc2ccn([C@@H]3CO[C@H](CO)O3)c(=O)n2)C1(C)C [Compound 235, 1,2,2,3-TETRAMETHYL- CYCLOPENTANECARBOXYLIC ACID [1-(2- HYDROXYMETHYL- [1,3]DIOXOLAN-4-YL)-2- OXO-1,2-DIHYDRO- PYRIMIDIN-4-YL]-AMIDE] | 1.6 µM | 1.1 µM | 0.38 µM | 1.2 µM | 61 µM | 51
CC(C)(CCCCCCc1ccccc1)C(=O)OC[C@H]1OC[C@@H](n2ccc(N)nc2=O)O1 [Compound 238, 2,2-DIMETHYL-8-PHENYL- OCTANOIC ACID 4-(4- AMINO-2-OXO-2H- PYRIMIDIN-1-YL)- [1,3]DIOXOLAN-2-YL METHYL ESTER] | 0.00045 µM | ≤ 0.0001 µM | 0.025 µM | 0.0025 µM | 59 µM | 23,600
CCCCC[C@H]1CC[C@H](C(=O)OC[C@H]2OC[C@@H](n3ccc(N)nc3=O)O2)CC1 [Compound 240, 4-PENTYL- CYCLOHEXANECARBOXYLIC ACID 4-(4-AMINO-2-OXO- 2H-PYRIMIDIN-1-YL)- [1,3]DIOXOLAN-2-YL METHYL ESTER] | ≤ 0.0001 µM | ≤ 0.0001 µM | ≤ 0.0001 µM | ≤ 0.0001 µM | 2.5 µM | ≧25000
CC(C)Cc1ccc([C@H](C)C(=O)Nc2ccn([C@@H]3CO[C@H](CO)O3)c(=O)n2)cc1 [Compound 242, N-[1-(2-HYDROXYMETHYL- [1,3]DIOXOLAN-4-YL)-2- OXO-1,2-DIHYDRO- PYRIMIDIN-4-YL]-2-(4- ISOBUTYL-PHENYL)- PROPIONAMIDE] | 0.25 µM | 0.001 µM | 1.1 µM | 0.23 µM | 93 µM | 404
CC(C)Cc1ccc([C@H](C)C(=O)OC[C@H]2OC[C@@H](n3ccc(N)nc3=O)O2)cc1 [Compound 243, 2-(4-ISOBUTYL-PHENYL)- PROPIONIC ACID 4-(4- AMINO-2-OXO-2H- PYRIMIDIN-1-YL)- [1,3]DIOXOLAN-2-YL METHYL ESTER] | 0.0011 µM | 0.0005 µM | 0.32 µM | 0.027 µM | 72 µM | 2,667
CCCCCc1ccc(OC(=O)Nc2ccn([C@@H]3CO[C@H](CO)O3)c(=O)n2)cc1 [Compound 250, [1-(2-HYDROXYMETHYL- [1,3]DIOXOLAN-4-YL)-2- OXO-1,2-DIHYDRO- […]-4-YL]- CARBAMIC ACID 4-PENTYL- PHENYL ESTER] | 0.17 µM | 0.16 µM | 0.17 µM | 0.063 µM | 31 µM | 492

Continued, in another order:

IC50 (H-460) | IC50 (MCF-7) | IC50 (SF-268) | IC50 (CCRF-CEM) | IC50 (CEM/dCK-) | SMILES | Factor* (Resistance Factor = Ratio of dCK- on Wild-type CCRF-CEM) (CEM/dCK-)
1.5 µM | 3.8 µM | 9.5 µM | 1 µM | > 100 µM | CC(C)N(/C=N/c1ccn([C@@H]2CO[C@H](CO)O2)c(=O)n1)C(C)C [Compound 230, N′-[1-(2-HYDROXYMETHYL- [1,3]DIOXOLAN-4-YL)-2- OXO-1,2-DIHYDRO- PYRIMIDIN-4-YL]-N,N- DIISOPROPYL-FORMAMIDINE] | >100
1.5 µM | 0.1 µM | 0.1 µM | 0.95 µM | > 100 µM | Cc1ccc(C)c(OCCCC(C)(C)C(=O)Nc2ccn([C@@H]3CO[C@H](CO)O3)c(=O)n2)c1 [Compound 234, 5-(2,5-DIMETHYL- PHENOXY)-2,2-DIMETHYL- PENTANOIC ACID [1-(2- HYDROXYMETHYL- [1,3]DIOXOLAN-4-YL)-2- OXO-1,2-DIHYDRO- PYRIMIDIN-4-YL]-AMIDE] | >105
0.047 µM | 0.17 µM | 14 µM | 1.4 µM | ≥ 100 µM | O=C(Nc1ccn([C@@H]2CO[C@H](CO)O2)c(=O)n1)C(c1ccccc1)c1ccccc1 [Compound 241, N-[1-(2-HYDROXYMETHYL- [1,3]DIOXOLAN-4-YL)-2- OXO-1,2-DIHYDRO- PYRIMIDIN-4-YL]-2,2- DIPHENYL-ACETAMIDE] | ≧74
< 0.0001 µM | < 0.0001 µM | < 0.0001 µM | < 0.0001 µM | 0.68 µM | CC(CCCCCCc1ccccc1)C(=O)OC[C@H]1OC[C@@H](n2ccc(N)nc2=O)O1 (stereo partly drawn) [Compound 245, 2-METHYL-8-PHENYL- OCTANOIC ACID 4-(4- AMINO-2-OXO-2H- PYRIMIDIN-1-YL)- [1,3]DIOXOLAN-2-YL METHYL ESTER] | >6800
47 µM | 1.4 µM | 28 µM | 25 µM | > 100 µM | Nc1ccn([C@@H]2CO[C@H](COC(=O)N(c3ccccc3)c3ccccc3)O2)c(=O)n1 [Compound 246, DIPHENYL-CARBAMIC ACID 4-(4-AMINO-2-OXO-2H- PYRIMIDIN-1-YL)- [1,3]DIOXOLAN-2-YL METHYL ESTER] | >4
8.6 µM | 0.78 µM | 8.4 µM | 3.9 µM | > 100 µM | CC(C)C(C(=O)Nc1ccn([C@@H]2CO[C@H](CO)O2)c(=O)n1)c1ccccc1 (stereo partly drawn) [Compound 249, #N!-[1-(2- HYDROXYMETHYL- [1,3]DIOXOLAN-4-YL)-2- OXO-1,2-DIHYDRO- PYRIMIDIN-4-YL]-3- METHYL-2-PHENYL- BUTYRAMIDE] | >25
